From paper PMC11659602, “Discovering covalent cyclic peptide inhibitors of peptidyl arginine deiminase 4 (PADI4) using mRNA-display with a genetically encoded electrophilic warhead” (Communications Chemistry, 2024)
Values joined by “and” are separate entries in the source; they are usually repeats but may differ in a detail not shown here. Equal entries are not always repeated. Where two headings read alike, the source gives them in different places. *1 amine or outer side, *2 acyl side, *3 side chain or, on linkers, in order; H or OH if unused. Where a SMILES comes first, the peptide text is derived from it. Bridges are numbered along the chain shown (N, C = ends). [ ]: non-standard residue; d: D form. Orn(fluoroacetimidoyl) = N=C(CF)NCCC[C@H](N)C(=O)O; X1 = N=C(CCl)NCCC[C@H](N[*:1])C(=O)[*:2]

What was measured:
PADI4 [1] = target: T1, PADI4 (Homo sapiens, UniProt Q9UM07); assay: COLDER inhibition assay, BAEE substrate, with or without 1 h preincubation; type: biochemical; settings: for IC50: COLDER; for remaining activity at 0.003 µM: peptide 0.003 µM; for remaining activity at 0.01 µM: peptide 0.01 µM; for remaining activity at 0.03 µM: peptide 0.03 µM; for remaining activity at 0.1 µM: peptide 0.1 µM; for remaining activity at 0.3 µM: peptide 0.3 µM; for remaining activity at 1 µM: peptide 1 µM; for remaining activity at 10 µM: peptide 10 µM
T1 construct: His6; made in house
T1 sequence (Q9UM07 whole entry): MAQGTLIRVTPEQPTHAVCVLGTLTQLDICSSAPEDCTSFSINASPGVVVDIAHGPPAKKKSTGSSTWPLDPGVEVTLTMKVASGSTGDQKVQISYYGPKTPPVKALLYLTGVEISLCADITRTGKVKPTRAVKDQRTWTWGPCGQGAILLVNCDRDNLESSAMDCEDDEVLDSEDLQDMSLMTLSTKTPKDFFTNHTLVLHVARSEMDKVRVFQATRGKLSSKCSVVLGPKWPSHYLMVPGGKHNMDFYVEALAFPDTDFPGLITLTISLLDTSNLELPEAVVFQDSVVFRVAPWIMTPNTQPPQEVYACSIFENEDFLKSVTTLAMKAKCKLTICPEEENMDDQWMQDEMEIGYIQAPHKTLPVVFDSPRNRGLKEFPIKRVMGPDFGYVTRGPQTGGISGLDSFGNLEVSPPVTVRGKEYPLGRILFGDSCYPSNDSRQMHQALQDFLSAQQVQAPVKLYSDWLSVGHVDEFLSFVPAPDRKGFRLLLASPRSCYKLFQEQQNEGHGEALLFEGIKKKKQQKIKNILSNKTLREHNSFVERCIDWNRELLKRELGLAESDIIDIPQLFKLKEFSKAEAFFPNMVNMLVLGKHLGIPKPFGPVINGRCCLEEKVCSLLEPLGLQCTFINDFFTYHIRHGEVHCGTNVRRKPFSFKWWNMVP
Protocol: PADI4 citrullination activity was analysed using the COLDER assay in 96-well plates. Peptide dilutions were prepared from a 500 µM stock, to give a 10 times concentrated dilution series (500 µM, 300 µM, 100 µM, 30 µM, 10 µM, 3 µM, 1 µM, 0.3 µM, 0.1 µM and 0.03 µM) in COLDER buffer (50 mM HEPES, 150 mM NaCl and 2 mM DTT, pH 7.5) containing 1% DMSO. In triplicate, each was diluted 10-fold further when mixed with 50 nM His-PADI4, 0.6 mg/mL BSA and 10 mM CaCl2, in COLDER buffer. With or without one hour of incubation, 10 mM N^α-Benzoyl-L-arginine ethyl ester hydrochloride (BAEE, Merck) was added to initiate the reaction (50 µL final volume). After 30 min at rt, EDTA (50 mM final concentration) was used to quench the reaction and 200 µL of COLDER solution containing 20 mM Diacetyl monoxime/2,3-butanedione monoxime (Merck), 0.5 mM Thiosemicarbazide (Acros Organics), 2.25 M H3PO4, 4.5 M H2SO4 and 1.5 mM NH4Fe(SO4)2.12H2O was added to each well. Samples were incubated for 20 min at 95 °C before measuring absorbance at 540 nm on a CLARIOstar Plus (BMG LABTECH). Data analysis was performed with GraphPad Prism. Data are presented as the average ± standard error of the mean from at least two independent replicates.

PADI4 [2] = target: T1, PADI4; assay: Incubation time-dependent COLDER assay IC50(t), Krippendorff fit; type: biochemical; settings: for IC50: replicates, read-out: apparent IC50; for Ki / kinact: Krippendorff fit of IC50 vs time
Protocol: To determine KI and kinact of covalent peptide inhibitors, COLDER assays were used[52]. Peptide dilutions were prepared using 5-fold dilutions from 500 µM and 300 µM to 0.8 µM and 2.4 µM, respectively, at 1% DMSO in COLDER buffer (50 mM HEPES, 150 mM NaCl and 2 mM DTT, pH 7.5). The 9 peptide dilutions were added to a 96-well plate, alongside a 1% DMSO control. An equal volume of 10 mM BAEE was added to each well and the solution was homogenised by pipette mixing. This was mixed with 50 nM His-PADI4, 0.6 mg/mL BSA and 10 mM CaCl2, in COLDER buffer, to bring the final volume to 300 µL in each well. Alternatively, His-PAD1 (100 nM) /His-PADI2 (100 nM) /His-PADI3 (250 nM) were used. For assays with PADI1 and PADI3, 10 mM N^α-benzoyl-L-arginine methyl […] (BAME) was used as the substrate instead of BAEE[48],[58],[59]. At 15-minute intervals, for 5 timepoints, 50 µL of solution was taken from each well and quenched with 10 µL EDTA (300 mM). 200 µL of COLDER solution containing 20 mM diacetyl monoxime/2,3-butanedione monoxime (Merck), 0.5 mM thiosemicarbazide (Acros Organics), 2.25 M H3PO4, 4.5 M H2SO4 and 1.5 mM NH4Fe(SO4)2.12H2O was added to each well. Samples were incubated for 20 min at 95 °C before measuring absorbance at 540 nm on a CLARIOstar Plus (BMG LABTECH). IC50 values for each time point were determined using non-linear regression with GraphPad Prism. Incubation time–dependent potency IC50(t) against incubation time was fitted to the Krippendorff equation (below) to determine KI and kinact using a Python script[53],[59]. […] IC50t=KI1+S/KM⋅2−2e^−ηIC50⋅kinact⋅t/ηIC50⋅kinact⋅t−1 WhereηIC50=IC50t/KI1+S/KM+IC50t

PADI4 [3] = target: T1, PADI4; assay: Surface plasmon resonance (SPR), single cycle kinetics; type: binding; settings: for Ki: k-1/k+1
Protocol: S8. Surface plasmon resonance (SPR)
Using a Biacore S200 (GE Healthcare), biotinylated His-PADI4 (80 nM) was immobilised on a CAP chip (GE Healthcare) to a response unit of approx. 3000. At 25 °C, single cycle kinetics mode was used with 5 samples of a 3-fold dilution series of peptides PADI4_3_H4(2), cP4_2, […]
mM HEPES, 150 mM NaCl, 10 mM CaCl2, 0.05% Tween-20, 0.1% DMSO (pH 7.5). After each cycle, regeneration of the chip was carried out as per the manufacturer’s protocol. Data were analysed with the Biacore S200 Evaluation Software, each in triplicate. Warhead-containing peptides were analysed using the two-state reaction model, with the rate constant for the reverse second step (k-2) set to zero. The equilibrium constant of the reversible binding step, Ki, was calculated as the ratio of k-1/k+1 and the rate constant of the irreversible chemical step, kinact, as k+2. The Arg4, Cit4 and Me4 peptides were fitted using a 1:1 binding model. […]

[4] = 1 h preincubation of peptide and PADI4, 10 mM CaCl2, read-out: IC50 Values 1 h preincubation
[5] = T=0, values starred, read-out: PADI4 activity normalised to 0.1% DMSO
[6] = T=1, read-out: PADI4 activity normalised to 0.1% DMSO
[7] = T=0, read-out: PADI4 activity normalised to 0.1% DMSO
[8] = each replicate, read-out: k2 / kinact
[9] = two-state reaction model, k+2, read-out: SPR kinact (converted)
[10] = no preincubation of peptide and PADI4, 10 mM CaCl2, read-out: IC50 Values 0 h preincubation
[11] = no preincubation, read-out: PADI4 activity, normalised (Figure 4b dose-response)

Row | Compound | IC50 (PADI4 [1]; [4]) | remaining activity at 0.003 µM (PADI4 [1]; [5]) | remaining activity at 0.003 µM (PADI4 [1]; [6]) | remaining activity at 0.01 µM (PADI4 [1]; [5]) | remaining activity at 0.01 µM (PADI4 [1]; [6]) | remaining activity at 0.03 µM (PADI4 [1]; [7]) | remaining activity at 0.1 µM (PADI4 [1]; [7]) | remaining activity at 0.3 µM (PADI4 [1]; [7]) | remaining activity at 1 µM (PADI4 [1]; [7]) | kinact/KI (PADI4 [2]) | IC50 (PADI4 [2]; 15 mins) | IC50 (PADI4 [2]; 30 mins) | IC50 (PADI4 [2]; 45 mins) | IC50 (PADI4 [2]; 60 mins) | IC50 (PADI4 [2]; 75 mins) | Ki (PADI4 [2]) | kinact/KI (PADI4 [3]) | kinact (PADI4 [3]; [9]) | Ki (PADI4 [3]; two-state reaction model) | IC50 (PADI4 [1]; [10]) | further results
1 | N=C(N)NCCC[C@@H]1NC(=O)[C@H](Cc2ccc(O)cc2)NC(=O)[C@H](Cc2c[nH]cn2)NC(=O)[C@H](CCCNC(=N)CF)NC(=O)[C@H](CC(=O)O)NC(=O)[C@H](CCCNC(=N)N)NC(=O)[C@@H](Cc2ccc(O)cc2)NC(=O)CSC[C@@H](C(=O)NCC(N)=O)NC(=O)[C@H](Cc2ccc(O)cc2)NC(=O)[C@H](CCCCN)NC(=O)[C@@H]2CCCN2C(=O)[C@H](Cc2c[nH]cn2)NC1=O [PADI4_3_H4(2), yRD(2)HYRHPKYCG] ({CH2CO}-[dY]RD[Orn(fluoroacetimidoyl)]HYRHPKYCG-NH2; thioether N-12) | 0.065 ± 0.007 µM | 103% | 102% | 100% | 83.7% | 102% | 101% | 96.2% | 77.4% | 2480 M⁻¹ s⁻¹ | 5.47 µM and 4.15 µM and 5.26 µM | 2.46 µM and 1.82 µM and 2 µM | 1.86 µM and 1.33 µM and 1.52 µM | 1.43 µM and 1.06 µM and 1.16 µM | 1.24 µM and 1.01 µM and 1.09 µM | 1.1 ± 0.2 µM | 68000 M⁻¹ s⁻¹ | 0.00102 s⁻¹ | 0.015 ± 0.002 µM |  | remaining activity at 0.03 µM (PADI4 [1]; [6]): 82.9%; remaining activity at 0.1 µM (PADI4 [1]; [6]): 29%; remaining activity at 3 µM (PADI4 [1]; peptide 3 µM, T=0, read-out: PADI4 activity normalised to 0.1% DMSO): 41.2%; remaining activity at 10 µM (PADI4 [1]; [7]): 18.1%; kinact (PADI4 [2]): 0.00267 s⁻¹; k2 / kinact (PADI4 [3]; each replicate, listed as P4_3_H4(2)): 0.0013 s⁻¹; kinact (PADI4 [3]; [8]): 0.001 s⁻¹
2 | CC[C@H](C)[C@H](NC(=O)[C@H](Cc1c[nH]c2ccccc12)NC(=O)[C@H](CCC(=O)O)NC(=O)[C@@H]1CSCC(=O)N[C@H](Cc2ccc(O)cc2)C(=O)N[C@@H](C(C)C)C(=O)N[C@@H](Cc2ccc(O)cc2)C(=O)N[C@@H](CCCNC(=N)CF)C(=O)N[C@@H](CC(=O)O)C(=O)N1)C(=O)N[C@@H](CC(N)=O)C(=O)N[C@@H](CCCNC(=N)N)C(=O)N[C@@H](C)C(=O)NCC(N)=O [cP4_165, yVY(2)DCEWINRAG] ({CH2CO}-[dY]VY[Orn(fluoroacetimidoyl)]DCEWINRAG-NH2; thioether N-6) | 0.17 ± 0.01 µM | 97.2% | 95% | 94.1% | 89% | 97.8% | 99.6% | 99.2% | 97% | 283 M⁻¹ s⁻¹ | 51.7 µM and 33.8 µM and 43.9 µM | 22.5 µM and 16.4 µM and 14.6 µM | 13.7 µM (2×) and 11.2 µM | 11.9 µM and 10 µM and 8.76 µM | 9.43 µM and 9.54 µM and 8.45 µM | 8.9 ± 1.1 µM | 1780 M⁻¹ s⁻¹ | 0.0011 s⁻¹ | 0.62 ± 0.06 µM | 11.8 ± 4.9 µM | remaining activity at 0.3 µM (PADI4 [1]; [6]): 24.1%; kinact (PADI4 [2]): 0.00267 s⁻¹; kinact (PADI4 [3]; [8]): 0.0013 s⁻¹
3 | N=C(N)NCCC[C@@H]1NC(=O)[C@H](CC(=O)O)NC(=O)[C@H](Cc2ccc(O)cc2)NC(=O)[C@H](CCCCN)NC(=O)[C@H](CO)NC(=O)[C@@H](Cc2ccc(O)cc2)NC(=O)CSC[C@@H](C(=O)NCC(N)=O)NC(=O)[C@H](CC(=O)O)NC(=O)[C@H](CCCNC(=N)N)NC(=O)[C@@H]2CCCN2C(=O)[C@H](CO)NC(=O)[C@H](CCCNC(=N)N)NC1=O [Arg4] ({CH2CO}-[dY]SKYDRRSPRDCG-NH2; thioether N-12) |  |  |  |  |  |  |  |  |  |  |  |  |  |  |  |  |  |  |  | > 100 µM | remaining activity at 0.3 µM (PADI4 [1]; [11]): 101%; Kd (PADI4 [3]; reversible binding, 1:1 binding model): 2 ± 0.2 µM
4 | N=C(N)NCCC[C@@H]1NC(=O)[C@H](CCCNC(=N)CCl)NC(=O)[C@H](CC(=O)O)NC(=O)[C@H](Cc2ccc(O)cc2)NC(=O)[C@H](CCCCN)NC(=O)[C@H](CO)NC(=O)[C@@H](Cc2ccc(O)cc2)NC(=O)CSC[C@@H](C(=O)NCC(N)=O)NC(=O)[C@H](CC(=O)O)NC(=O)[C@H](CCCNC(=N)N)NC(=O)[C@@H]2CCCN2C(=O)[C@H](CO)NC1=O [Cl4] ({CH2CO}-[dY]SKYD[X1]RSPRDCG-NH2; thioether N-12) | 0.066 ± 0.009 µM |  |  |  |  |  |  |  |  |  |  |  |  |  |  |  | 1170 M⁻¹ s⁻¹ | 0.00467 s⁻¹ | 4 ± 0.2 µM | 8.2 ± 0.8 µM | remaining activity at 0.1 µM (PADI4 [1]; 1 h, T = 1 h preincubation, read-out: PADI4 activity, normalised (Figure 4b dose-response)): 27.3%; remaining activity at 0.01 µM (PADI4 [1]; [11]): 85.9%; remaining activity at 0.03 µM (PADI4 [1]; [11]): 90.5%; remaining activity at 0.1 µM (PADI4 [1]; [11]): 86.7%; remaining activity at 0.3 µM (PADI4 [1]; [11]): 86.6%; remaining activity at 1 µM (PADI4 [1]; [11]): 82.4%; remaining activity at 10 µM (PADI4 [1]; [11]): 34.1%; remaining activity at 30 µM (PADI4 [1]; peptide 30 µM, no preincubation, read-out: PADI4 activity, normalised (Figure 4b dose-response)): 12.5%; remaining activity at 50 µM (PADI4 [1]; peptide 50 µM, no preincubation, read-out: PADI4 activity, normalised (Figure 4b dose-response)): 6.56%
